Assay results reported in patent US11453703B2, “Heterotandem bicyclic peptide complexes” (BicycleTX Limited, priority 2018, dated 2022).

What was measured:
[1] = system: human PBMC co-cultured with 4T1-D02 (Nectin4+); experiment: Human PBMC-4T1 co-culture (cytokine release) assay; type: cell-based; settings: anti-CD3 stimulated PBMC, 48 hours; for EC50: IFN-γ secretion
Protocol: Mouse mammary gland tumor cell line 4T1-1 (4T1-Parental) and murine Nectin-4 overexpressing 4T1 (4T1-D02) were cultured in RPMI1640 supplemented with 10% heat-inactivated Fetal Bovine Serum, 100 I.U/ml Penicillin and 100 I.U/Streptomycin, 20 mM HEPES, 1× Non-Essential Amino Acids, and 2 mM L-Glutamine (RPMI working medium). Frozen PBMCs from healthy human donors were thawed and washed one time in room temperature PBS, and then resuspended in RPMI working medium. For tumor cell and PBMC co-culture, 10000 PBMCs and 2000 tumor cells (5:1) were mixed and plated in each well of a 384 well plate. For stimulating human PBMCs, 125 ng/ml of soluble anti-CD3 mAb (clone OKT3) was added to the culture on day 0. Test, control compounds or vehicle controls were added to respective wells and brought the final volume per well to 100u1. Plates were incubated in a 37° C. cell culture incubator with 5% CO2 for up to three days. Supernatants were collected 48 hours after stimulation, and human IL-2 and IFFγ were detected using HTRF assays. Raw data were analyzed using Excel or Prism software to generate standard curves to interpolate protein concentrations. Data represents one study with three different donor PBMC tested in experimental duplicates.

[2] = biological target: T1, CD137 (Homo sapiens, UniProt Q07011); experiment: CD137 reporter assay, co-culture with Nectin-4 tumour cells; type: cell-based; parameters: host or cells: Jurkat reporter cells; settings: for Fold Induction over Background: tumour target Nectin4, co-culture with H1376, 6 h;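 as to all read-outs here: jurkat reporter cells co-cultured with tumour cells and test article for 6 h, luminescence signal relative to Jurkat plus tumour cells lacking test article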
T1 sequence (Q07011 24-255): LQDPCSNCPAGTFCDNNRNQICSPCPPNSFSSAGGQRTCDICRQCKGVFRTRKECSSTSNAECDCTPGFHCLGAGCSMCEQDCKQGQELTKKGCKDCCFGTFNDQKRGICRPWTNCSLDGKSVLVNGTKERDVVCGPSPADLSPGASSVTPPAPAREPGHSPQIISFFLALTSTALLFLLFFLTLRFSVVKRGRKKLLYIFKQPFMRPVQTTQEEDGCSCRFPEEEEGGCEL

[3] = biological target: T1, CD137; experiment: CD137 reporter assay, co-culture with EphA2 tumour cells; type: cell-based; parameters: host or cells: Jurkat reporter cells; settings: tumour target EphA2, co-culture with PC3, at 100 nM; read-out: Fold Induction over Background at 100 nM
Protocol: Culture medium referred to as R1 media is prepared by adding 1% FBS to RPMI-1640 (component of Promega kit CS196005). Serial dilutions of test articles in R1 are prepared in a sterile 96 well-plate. Use 25 μl per well of test articles or R1 (as a background control) to designated wells in white cell culture plate. Tumour cells* are harvested and resuspended at a concentration of 400,000 cells/mL in R1 media. Twenty five (25) μL/well tumour cells are used in white cell culture plate. Jurkat cells (Promega kit CS196005, 0.5 mL) are thawed in the water bath and then added to 5 ml pre-warmed R1 medium. Twenty five (25) μL/well Jurkat cells are used in white cell culture plate. Incubate the cells and test articles for 6h at 37° C., 5% CO2. At the end of 6 h, add 75 μl/well Bio-Glo™ (Promega) and incubate for 10 min before reading luminescence in a plate reader (Clariostar, BMG). The fold change relative to cells (Jurkat cells+Cell line used in co-culture) is calculated and plotted in GraphPad Prism as log(agonist) vs response to determine EC50 (nM) and Fold Induction over background (Max)

[4] = biological target: T1, CD137; experiment: CD137 Biacore (SPR) binding assay; parameters: purchased R&D systems; settings: biotinylated human CD137, 25° C.
Protocol: Biacore experiments were performed to determine ka (M^−1s^−1), kd (s^−1), KD (nM) values of heterotandem peptides binding to human CD137 protein. […] The protein was desalted to remove uncoupled biotin using spin columns into PBS.
For analysis of peptide binding, a Biacore T200 or a Biacore 3000 instrument was used with a XanTec CMD500D chip. Streptavidin was immobilized on the chip using standard amine-coupling chemistry at 25° C. with HBS-N (10 mM HEPES, 0.15 M NaCl, pH 7.4) as the running buffer. Briefly, the carboxymethyl dextran surface was activated with a 7 min injection of a 1:1 ratio of 0.4 M 1-ethyl-3-(3-dimethylaminopropyl) carbodiimide hydrochloride (EDC)/0.1 M N-hydroxy succinimide (NHS) at a flow rate of 10 μl/min. For capture of streptavidin, the protein was diluted to 0.2 mg/ml in 10 mM sodium acetate (pH 4.5) and captured by injecting 120 μl of onto the activated chip surface. Residual activated groups were blocked with a 7 min injection of 1 M ethanolamine (pH 8.5) and biotinylated CD137 captured to a level of 270-1500 RU. Buffer was changed to PBS/0.05% Tween 20 and a dilution series of the peptides was prepared in this buffer with a final DMSO concentration of 0.5%. The top peptide concentration was 500 nM with 6 further 2-fold or 3-fold dilutions. The SPR analysis was run at 25° C. at a flow rate of 90 μl/min with 60 seconds association and 900 seconds dissociation. After each cycle a regeneration step (10 μl of 10 mM glycine pH 2) was employed. Data were corrected for DMSO excluded volume effects as needed. All data were double-referenced for blank injections and reference surface using standard processing procedures and data processing and kinetic fitting were performed using Scrubber software, version 2.0c (BioLogic Software). Data were fitted using simple 1:1 binding model allowing for mass transport effects where appropriate.

SMILES	EC50 [1]	max IFN-y [1]	EC50 [2]	Fold Induction over Background [2]	fold induction at 0.1 µM [3]	Kd [4]	fold induction at 0.1 µM ([2]; read-out: Fold Induction over Background at 100 nM)
CCCC[C@@H]1NC(=O)[C@H](Cc2ccc(O)cc2)NC(=O)[C@@H]2CCCN2C(=O)[C@H](CC(=O)O)NC(=O)[C@H](C)NC(=O)[C@H](Cc2ccccc2)NC(=O)[C@@H]2CSCCC(=O)N3CN(CN(C3)C(=O)CCSC[C@@H](C(=O)N[C@@H](CNC(=O)CCOCCOCCOCCOCCOCCOCCOCCOCCOCCOCCOCCOCCn3cc(CCC(=O)NCCC(=O)N(C)CC(=O)N(C)CC(=O)N(C)CC(=O)N(C)CC(=O)N(C)CC(=O)N(C)CC(=O)N(C)CC(=O)N(C)CC(=O)N(C)CC(=O)N(C)CC(=O)N[C@H]4CSCCC(=O)N5CN6CN(C5)C(=O)CCSC[C@H](NC(=O)[C@@H](CC(=O)O)NC(=O)[C@H](Cc5cccc7ccccc57)NC(=O)[C@@H]5CCCN5C4=O)C(=O)N[C@@H](CCSC)C(=O)N[C@@H](CCCCNC(=N)N)C(=O)N[C@@H](CC(=O)O)C(=O)N[C@@H](Cc4c[nH]c5ccccc45)C(=O)N[C@@H](CO)C(=O)N[C@@H]([C@@H](C)O)C(=O)N4CCC[C@H]4C(=O)N4C[C@H](O)C[C@H]4C(=O)N[C@@H](Cc4c[nH]c5ccccc45)C(=O)N[C@H](C(N)=O)CSCCC6=O)nn3)C(N)=O)NC1=O)C(=O)CCSC[C@H](NC(=O)[C@H](C)NC(C)=O)C(=O)N[C@@H]([C@@H](C)CC)C(=O)N[C@@H](CCC(=O)O)C(=O)N[C@@H](CCC(=O)O)C(=O)NCC(=O)N[C@@H](CCC(N)=O)C(=O)N[C@@H](Cc1ccc(O)cc1)C(=O)N2 [BCY8854]	0.89 nM	15962 pg/mL	1.2 nM	30 fold			
CCCC[C@@H]1NC(=O)[C@H](Cc2ccc(O)cc2)NC(=O)[C@@H]2CCCN2C(=O)[C@H](CC(=O)O)NC(=O)[C@@H](C)NC(=O)[C@H](Cc2ccccc2)NC(=O)[C@@H]2CSCCC(=O)N3CN(CN(C3)C(=O)CCSC[C@@H](C(=O)N[C@@H](CNC(=O)CCOCCOCCOCCOCCOCCOCCOCCOCCOCCOCCOCCOCCn3cc(CCC(=O)NCCC(=O)N(C)CC(=O)N(C)CC(=O)N(C)CC(=O)N(C)CC(=O)N(C)CC(=O)N(C)CC(=O)N(C)CC(=O)N(C)CC(=O)N(C)CC(=O)N(C)CC(=O)N[C@@H](C)C(=O)N[C@@H](CCCCNC(=N)N)C(=O)N[C@@H](CC(=O)O)C(=O)N[C@H]4CSCCC(=O)N5CN6CN(C5)C(=O)CCSC[C@H](NC(=O)[C@H](CC(C)C)NC(=O)[C@@H]5CCCN5C(=O)[C@H](CC(N)=O)NC(=O)[C@H](C(C)C)NC(=O)[C@H](CC(C)C)NC(=O)[C@@H]5C[C@@H](O)CN5C4=O)C(=O)N[C@@H](CC(C)C)C(=O)N[C@@H](Cc4c[nH]cn4)C(=O)N4CCC[C@H]4C(=O)N[C@H](CC(=O)O)C(=O)N[C@@H](Cc4c[nH]c5ccccc45)C(=O)N[C@@H](CCCCNC(=N)N)C(=O)N[C@H](C(N)=O)CSCCC6=O)nn3)C(N)=O)NC1=O)C(=O)CCSC[C@H](NC(=O)[C@H](C)NC(C)=O)C(=O)N[C@@H]([C@@H](C)CC)C(=O)N[C@@H](CCC(=O)O)C(=O)N[C@@H](CCC(=O)O)C(=O)NCC(=O)N[C@@H](CCC(N)=O)C(=O)N[C@@H](Cc1ccc(O)cc1)C(=O)N2 [BCY8942]					< 2	853 nM	
CCCC[C@@H]1NC(=O)[C@H](Cc2ccc(O)cc2)NC(=O)[C@@H]2CCCN2C(=O)[C@H](CC(=O)O)NC(=O)[C@@H](C)NC(=O)[C@H](Cc2ccccc2)NC(=O)[C@@H]2CSCCC(=O)N3CN(CN(C3)C(=O)CCSC[C@@H](C(=O)N[C@@H](CNC(=O)CCOCCOCCOCCOCCOCCOCCOCCOCCOCCOCCOCCOCCn3cc(CCC(=O)NCCC(=O)N(C)CC(=O)N(C)CC(=O)N(C)CC(=O)N(C)CC(=O)N(C)CC(=O)N(C)CC(=O)N(C)CC(=O)N(C)CC(=O)N(C)CC(=O)N(C)CC(=O)N[C@H]4CSCCC(=O)N5CN6CN(C5)C(=O)CCSC[C@H](NC(=O)[C@@H](CC(=O)O)NC(=O)[C@H](Cc5cccc7ccccc57)NC(=O)[C@@H]5CCCN5C4=O)C(=O)N[C@@H](CCSC)C(=O)N[C@@H](CCCCNC(=N)N)C(=O)N[C@@H](CC(=O)O)C(=O)N[C@@H](Cc4c[nH]c5ccccc45)C(=O)N[C@@H](CO)C(=O)N[C@@H]([C@@H](C)O)C(=O)N4CCC[C@H]4C(=O)N4C[C@H](O)C[C@H]4C(=O)N[C@@H](Cc4c[nH]c5ccccc45)C(=O)N[C@H](C(N)=O)CSCCC6=O)nn3)C(N)=O)NC1=O)C(=O)CCSC[C@H](NC(=O)[C@H](C)NC(C)=O)C(=O)N[C@@H]([C@@H](C)CC)C(=O)N[C@@H](CCC(=O)O)C(=O)N[C@@H](CCC(=O)O)C(=O)NCC(=O)N[C@@H](CCC(N)=O)C(=O)N[C@@H](Cc1ccc(O)cc1)C(=O)N2 [BCY9351]		No Activity up to 1 μM				3640 nM	< 2
CCCC[C@@H]1NC(=O)[C@H](Cc2ccc(O)cc2)NC(=O)[C@@H]2CCCN2C(=O)[C@H](CC(=O)O)NC(=O)[C@H](C)NC(=O)[C@H](Cc2ccccc2)NC(=O)[C@@H]2CSCCC(=O)N3CN(CN(C3)C(=O)CCSC[C@@H](C(=O)N[C@@H](C)C(N)=O)NC1=O)C(=O)CCSC[C@H](NC(C)=O)C(=O)N[C@@H](CC(C)(C)C)C(=O)N1CCC[C@H]1C(=O)N[C@@H](CCCCNC(=O)CCc1cn(CCOCCOCCOCCOCCOCCC(=O)N[C@H]3CSCCC(=O)N4CN5CN(C4)C(=O)CCSC[C@H](NC(=O)[C@@H](CC(=O)O)NC(=O)[C@H](Cc4cccc6ccccc46)NC(=O)[C@@H]4CCCN4C3=O)C(=O)N[C@@H](CCSC)C(=O)N[C@@H](CCCCNC(=N)N)C(=O)N[C@@H](CC(=O)O)C(=O)N[C@@H](Cc3c[nH]c4ccccc34)C(=O)N[C@@H](CO)C(=O)N[C@@H]([C@@H](C)O)C(=O)N3CCC[C@H]3C(=O)N3C[C@H](O)C[C@H]3C(=O)N[C@@H](Cc3c[nH]c4ccccc34)C(=O)N[C@H](C(N)=O)CSCCC5=O)nn1)C(=O)N[C@H](C)C(=O)N1CCC[C@H]1C(=O)N[C@@H](Cc1ccc(O)cc1)C(=O)N2 [BCY10571]	0.44 nM	18349 pg/mL	3.5 nM	60 fold			
